The subject of assay [1] is H1975 (KRAS wild type human lung adenocarcinoma cell line). The assay is described as follows: KRAS 3D-Cell Proliferation Assay, H1975 (CellTiter-Glo 3D, 7 days). The format is cell-based. As to conditions: H1975 3D culture, read-out: Prolif H1975 3D ATP IC50. The essentials:
(§1)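 Cells were grown as 3D cultures in ultra-low attachment plates in RPMI-1640 with 10% FBS and 2 mM glutamine. Compound dilution series (0.3% DMSO final) were added after overnight culture, and plates were incubated for 7 days at 37 °C. CellTiter-Glo 3D luminescence was normalised to DMSO and 1 uM staurosporine, and IC50 was taken from 4-parameter Hill fits.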

Another assay deals with KRAS G12D (Homo sapiens (Human), UniProt P01116, G12D). The assay is described as follows: KRAS G12D LoEnz Biochemical Assay, BODIPY-GDP Exchange TR-FRET (SOS1-mediated nucleotide exchange). As to conditions: read-out: KRas (G12D) GDP HTRF IC50.
For assay [2], the system named is HPAC (homozygous mutant KRAS G12D human pancreatic cell line). The assay is described as follows: KRAS 3D-Cell Proliferation Assay, HPAC (CellTiter-Glo 3D, 7 days). The format is cell-based. As to conditions: HPAC 3D culture, read-out: Prolif HPAC 3D ATP IC50. In outline: as §1
Assay [3] concerns the target T1, KRAS WT (Homo sapiens (Human), UniProt P01116). The assay is described as follows: KRAS WT Biochemical Assay, BODIPY-GDP Exchange TR-FRET (Example 502; 0.06 nM KRAS WT, 15 nM GDP, 300 nM SOS1, 120-minute incubation). The settings on record: read-out: KRas HTRF IC50. The essentials:
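Biotin-tagged recombinant KRAS WT (0.06 nM) preloaded with 15 nM GDP and Tb-streptavidin, 10 min RT, then exchange started with 300 nM SOS1 plus 300 nM BODIPY-GDP in HEPES pH 7.5 buffer with MgCl2. TR-FRET 520/490 ratio read after 120 min; normalized to DMSO and full-inhibition control; IC50 from 4-parameter fit.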

Assay [4] has as its system AsPC-1 (homozygous mutant KRAS G12D human pancreatic cell line). The assay is described as follows: KRAS 3D-Cell Proliferation Assay, AsPC-1 (CellTiter-Glo 3D, 7 days). The settings on record: AsPC-1 3D culture, read-out: Prolif AsPC-1 3D ATP IC50. Format: cell-based. The procedure: (§2) Example 503: KRAS 3D-Cell Proliferation Assays. Cellular potencies of compounds are assessed by evaluating inhibition of proliferation in 3D cultures of homozygous mutant KRAS G12D human pancreatic cell lines (AsPC-1 and HPAC) as compared to a KRAS wild type human lung adenocarcinoma cell line (PC-9 and/or H1975). Cells are seeded into 384-well black round-bottom, ultra-low attachment assay plates in 50 uL cell growth medium (RPMI-1640 with 10% fetal bovine serum and 2 mM L-glutamine). After overnight incubation at 37° C. and 5% CO2, compounds solubilized in DMSO are added as dilution series to the wells in a total volume of 150 nL (0.3% DMSO final). The cells are incubated for 7 days at 37° C. and 5% CO2. Cell proliferation is quantitated by addition of 40 uL/well of CellTiter-GloO 3D (Promega), and the well contents are mixed 20× at high speed using liquid handling automation workstation (Bravo with 384-well head) and centrifuged at 1500 rpm for 2 minutes to eliminate bubbles. This reagent in combination with mechanical disruption releases the cellular ATP to promote activity in a luciferase-based enzyme/substrate chemiluminescent detection system. After a 30-minute incubation under ambient conditions with shaking and an additional 10 minutes without shaking, the luminescence is read on a plate reader (e.g. EnVision [PerkinElmer]). The results are normalized to percent inhibition based on the following control samples: DMSO (0% inhibition) and 1 uM staurosporine (100% inhibition). The normalized luminescence results are plotted against compound concentration, and the data are fit to a 4-parameter Hill equation to determine the IC50 values.

Assay [5] concerns PC-9 (KRAS wild type human lung adenocarcinoma cell line). The assay is described as follows: KRAS 3D-Cell Proliferation Assay, PC-9 (CellTiter-Glo 3D, 7 days). Format: cell-based. The settings on record: PC-9 3D culture, read-out: Prolif PC9 3D ATP IC50. The procedure:
as §2

The target of assay [6] is T1, KRAS WT. The assay is described as follows: KRAS WT Biochemical Assay, BODIPY-GDP Exchange TR-FRET (Example 501; 3 nM KRAS WT, 3 nM SOS1, 60-minute incubation). As to conditions: read-out: KRas(wt) GDP HTRF IC50. In outline: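 SOS1-mediated exchange assay: 3 nM biotin-KRAS WT with terbium-streptavidin, started with 3 nM SOS1 and 300 nM BODIPY-GDP, HEPES pH 7.5 with MgCl2. TR-FRET (520/490 nm) read after 60 min; normalized to DMSO and full-inhibition control, IC50 from 4-parameter Hill fit.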

Where “and” joins values, the source holds several entries; their conditions need not be identical. Identical values can stand only once. Like-named read-outs stand apart in the source and are kept apart here.

T1 sequence (P01116-2 other isoform, or with tags, fused parts or gaps): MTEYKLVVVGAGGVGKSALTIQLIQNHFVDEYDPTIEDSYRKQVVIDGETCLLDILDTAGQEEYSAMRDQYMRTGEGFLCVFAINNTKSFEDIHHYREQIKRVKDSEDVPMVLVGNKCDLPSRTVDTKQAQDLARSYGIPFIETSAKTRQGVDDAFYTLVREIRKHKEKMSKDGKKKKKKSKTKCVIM
Chain of KRAS G12D (P01116-2 other isoform, or with tags, fused parts or gaps G12D): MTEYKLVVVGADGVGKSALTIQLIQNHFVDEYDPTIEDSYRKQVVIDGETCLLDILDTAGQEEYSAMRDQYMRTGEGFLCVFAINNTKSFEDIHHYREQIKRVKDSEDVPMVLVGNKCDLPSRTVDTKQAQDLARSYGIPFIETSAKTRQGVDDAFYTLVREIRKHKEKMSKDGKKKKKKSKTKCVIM

`Cc1c(F)c(N)cc(-c2nc3c4c(nc(OC[C@]5(CN6CC7(COC7)C6)CC5(F)F)nc4c2F)N2C[C@H]4CC[C@H](N4)[C@H]2[C@H](C)O3)c1C(F)(F)F` (mixture of isomers) [165 a, 5-((5S,5aS,6S,9R)-12-((1-((2-Oxa-6-azaspiro[3.3]heptan-6-yl)methyl)-2,2-difluorocyclopropyl)methoxy)-1-fluoro-5-methyl-5a,6,7,8,9,10-hexahydro-5H-4-oxa-3,10a,11,13,14-pentaaza[6,9]methanonaphtho[1,8-ab]heptalen-2-yl)-2-fluoro-3-methyl-4-(trifluoromethyl)aniline]: the IC50 came out at 374 nM in assay [1] (Homo sapiens, NCI-H1975, 168 h); 0.08 nM at KRAS G12D; 0.63 nM in assay [2] (Homo sapiens, HPAC, 168 h); 1.14 nM at KRAS WT [3]; 0.6 nM in assay [4] (Homo sapiens, ASPC1, 168 h).
Taken in the same sequence, the figures for `Cc1c(F)c(N)cc(-c2nc3c4c(nc(OC[C@]56CCC[C@@H]5N(C)CCC6)nc4c2F)N2C[C@H]4CC[C@H](N4)[C@H]2[C@H](C)O3)c1C(F)(F)F` (single isomer, unassigned) [126 (isomer 1)] were 770 nM, 0.1 nM, 0.51 nM, 0.42 nM and 0.6 nM.
For `Cc1c(F)c(N)cc(-c2nc3c4c(nc(OC[C@]5(CN6CC7(COC7)C6)CC5(F)F)nc4c2F)N2C[C@H]4CC[C@H](N4)[C@H]2[C@H](C)O3)c1C(F)(F)F` (single isomer, unassigned) [165 b], the IC50 was found to be 499 nM in assay [1]; 0.1 nM at KRAS G12D; 0.66 nM in assay [2]; 1.43 nM at KRAS WT [3]; 0.849 nM in assay [4].
Take `CN1CCC2COc3nc(-c4cc(O)cc5cccc(F)c45)c(F)c4nc(OC[C@@]56CCCN5C[C@H](F)C6)nc(c34)N2CC1` (single isomer, unassigned) [Compound 49]: the IC50 in assay [5] is 4240 nM; at KRAS WT [6] it was 561 nM and 331 nM; in assay [4] (Homo sapiens, ASPC1, 168 h) it was 20000 nM.
With `Cc1c(F)c(N)cc(-c2nc3c4c(nc(OC[C@]5(CN6CC7(COC7)C6)CC5(F)F)nc4c2F)N2C[C@H]4CC[C@H](N4)[C@H]2[C@H](C)O3)c1C(F)(F)F` (stereo in doubt) [165 c, 5-((5S,5aS,6S,9R)-12-((1-((2-Oxa-6-azaspiro[3.3]heptan-6-yl)methyl)-2,2-difluorocyclopropyl)methoxy)-1-fluoro-5-methyl-5a,6,7,8,9,10-hexahydro-5H-4-oxa-3,10a,11,13,14-pentaaza[6,9]methanonaphtho[1,8-ab]heptalen-2-yl)-2-fluoro-3-methyl-4-(trifluoromethyl)aniline], the IC50 in assay [1] came to 481 nM; on KRAS G12D, 0.09 nM; in assay [2] it was 1.09 nM; at KRAS WT [3], 2.19 nM; in assay [4], 1.1 nM.
For `C[C@@H]1Oc2nc(-c3cc(N)nc4ccccc34)c(F)c3nc(OC[C@]45CCN4CC(F)(F)C5)nc(c23)N2C[C@H]3CC[C@H](N3)[C@@H]12` [Compound 79, 4-((5S,5aS,6S,9R)-12-(((R)-3,3-Difluoro-1-azabicyclo[3.2.0]heptan-5-yl)methoxy)-1-fluoro-5-methyl-5a,6,7,8,9,10-hexahydro-5H-4-oxa-3,10a,11,13,14-pentaaza-6,9-methanonaphtho[1,8-ab]heptalen-2-yl)quinolin-2-amine], the IC50 worked out at 20000 nM in assay [5]; 22.7 nM at KRAS G12D; 954 nM at KRAS WT [6]; 1530 nM on KRAS WT [3]; 4040 nM in assay [4].
On to `Cc1ccnc(-c2nc3c4c(nc(OC[C@]56CCN5CC(F)(F)C6)nc4c2F)N2C[C@H]4CC[C@H](N4)[C@H]2[C@H](C)O3)c1C(F)(F)F` [Compound 88, (5S,5aS,6S,9R)-12-(((R)-3,3-Difluoro-1-azabicyclo[3.2.0]heptan-5-yl)methoxy)-1-fluoro-5-methyl-2-(4-methyl-3-(trifluoromethyl)pyridin-2-yl)-5a,6,7,8,9,10-hexahydro-5H-4-oxa-3,10a,11,13,14-pentaaza-6,9-methanonaphtho[1,8-ab]heptalene], for which the IC50 in assay [5] (Homo sapiens, PC-9, 168 h) amounted to 20000 nM; at KRAS G12D it was 1470 nM; on KRAS WT [3], 1620 nM; in assay [4] (Homo sapiens, ASPC1, 168 h), 20000 nM.

The values are drawn from patent US20240025919A1, “AZA-TETRACYCLIC OXAZEPINE COMPOUNDS AND USES THEREOF” (Genentech, Inc., priority 2022, published 2024).
